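The compound was tested at five concentrations on cells cultured in 96-well plates, with a 48-hour exposure period. Definition used: TGI = concentration required for complete inhibition of growth.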

Holding throughout (experiment): growth of human tumour cells (NCI), 48 h
Assay [1] deals with M14 melanoma.
Assay [2] deals with MDA-MB-435.
Assay [3] concerns SF-539 CNS.
In assay [4] the test system is MDA-N.
The subject of assay [5] is UACC-62 melanoma.
The test system of assay [6] is NCI-H522 lung.
The subject of assay [7] is SNB-78 CNS.
Assay [8] concerns DMS 114 small cell lung.
For assay [9], the system named is DMS 273 small cell lung.
In assay [10] the test system is XF 498 CNS.
Assay [11] relates to DLD-1 colon.
In assay [12] the test system is LXFL 529 NSCLC.
In assay [13] the test system is RXF-631 renal.
The test system of assay [14] is KM20L2 colon.
For assay [15], the system named is M19-MEL melanoma.
For assay [16], the system named is HOP-18 NSCLC.

With `CC(=O)O[C@H]1CCn2c3c(c(C)c21)C(=O)C(N1CC1)=C(C)C3=O`, the TGI in assay [1], in assay [2], in [3], in assay [4], in [5] and in [6] was greater than 10 µM in each case.
For the compound `O=C(Cc1ccccc1)NCCCN(CCCCN(CCCNC(=O)Cc1ccccc1)C(=O)OCc1ccccc1)C(=O)OCc1ccccc1`, the TGI is greater than 100 µM in assay [1]; greater than 100 µM in [2]; greater than 100 µM in assay [3]; greater than 100 µM in [4]; greater than 100 µM in assay [5]; 12.2 µM in assay [6].
Consider `COc1cccc2c1C(=O)c1ccc3cc(CCl)cc(O)c3c1C2=O`, for which the TGI in assay [1] is 0.743 µM; in assay [2], 0.46 µM; in assay [3], 0.701 µM; in [4] it was 0.765 µM; in assay [5], 0.687 µM; in assay [6], 1.15 µM.
In the case of `CCN(CC)C(=S)N=Nc1c(O)[nH]c2ccccc12`, the TGI in [1] was determined as 2.94 µM; in [2], 18.8 µM; in assay [3] it was 2.4 µM; in assay [4], 16.5 µM; in [5], 6.38 µM; in [6] it was 14.4 µM.
As to `CC(C)(C)[Si](C)(C)OCCOCn1cc(F)c(=O)[nH]c1=O`, the TGI in assay [1], in assay [2], in assay [3], in assay [4], in assay [5] and in [6] was greater than 100 µM in each case.
On to `O=C(CCCN1CCC2(CC1)CC(=O)N(N1CCCCCC1)C2=O)c1ccc(F)cc1`, for which the TGI in assay [1], in assay [2], in [3], in assay [4], in [5] and in [6] was greater than 100 µM in each case.
In the case of `Cc1ccc(S(=O)(=O)n2c3c(c4ccccc42)CCN2CCC(Br)C[C@@H]32)cc1` (some centres not stated), the TGI turned out to be 25.9 µM in assay [1]; 14.4 µM in [2]; 31.5 µM in [3]; 15.8 µM in assay [4]; 25.3 µM in [5]; 18.6 µM in assay [6].
In the case of `CC1=N[C@](C)(C2CC3C=CC2C3=O)COC1=O` (some centres not stated), the TGI in assay [1], in [2], in assay [3], in assay [4], in assay [5] and in assay [6] was greater than 100 µM each time.
In the case of `O=C1/C(=C/c2c(Cl)[nH]c3ccccc23)c2ccccc2N1c1ccccc1`, the TGI in assay [1] came out at 13 µM; in [2], 4.12 µM; in assay [3], 7.44 µM; in assay [4] it was 3.8 µM; in assay [5], 21.1 µM; in assay [6], 10.7 µM.
Consider `O=c1oc2c(ccc3ccccc32)cc1C1=CSC2=NCCN12`, for which the TGI in [1], in assay [2], in assay [3], in assay [4], in assay [5] and in assay [6] was greater than 100 µM in each case.
Consider `N#Cc1[nH]c(=O)n(-c2cccc3ccccc23)c1N`, for which the TGI in assay [1], in assay [2], in assay [3], in [4], in [5] and in [6] was greater than 10 µM each time.
Turning to `O=C(/C=C/c1ccccc1)CSc1nc2ccc(I)cc2c(=O)n1Cc1ccccc1`, the TGI is greater than 100 µM in assay [1]; greater than 100 µM in [2]; greater than 100 µM in assay [3]; greater than 100 µM in assay [4]; greater than 100 µM in assay [5]; greater than 89.5 µM in [6].
Turning to `Cc1ccc(S(=O)(=O)NNC2(NS(=O)(=O)c3ccc(Cl)cc3)C(Cl)=C(Cl)C(=O)c3ccccc32)cc1` (configuration not stated), the TGI is 33 µM in assay [1]; 36 µM in [2]; 48.8 µM in [3]; 32.2 µM in assay [4]; 31 µM in [5]; greater than 100 µM in assay [6].
For `COC(=O)CC(=O)Nc1sccc1S(=O)(=O)c1ccccc1`, the TGI in [1], in assay [2], in [3], in assay [4], in assay [5] and in assay [6] was greater than 100 µM each time.
Turning to `CCOC(=O)/C=C(\C(=O)OCC)n1ccc(=O)n(CC(=O)OCC)c1=O`, the TGI turned out to be 5.48 µM in assay [1]; 16.4 µM in [2]; 32.3 µM in [3]; 17 µM in [4]; 19.2 µM in [5]; 3.25 µM in assay [6].
For `CC(C)C1COC(c2cccc(C3=N[C@@H](C(C)C)CO3)n2)=N1` (some centres not stated), the TGI in assay [7], in [1], in assay [8], in assay [9], in assay [3] and in assay [10] was greater than 100 µM in each case. The TGI in assay [11], in assay [12], in assay [13], in assay [14], in [15] and in [6] was greater than 100 µM throughout.
As to `COc1ccc(C2(O)c3ccccc3C(=O)N(C)C2(O)c2ccc(OC)cc2)cc1` (configuration not stated), the TGI is greater than 100 µM in assay [1]; 42.2 µM in assay [2]; greater than 100 µM in assay [3]; 38.1 µM in assay [4]; greater than 100 µM in [5]; 74.9 µM in assay [6].
For the compound `CN(C)CCn1c(=O)c2ccc3c4c(nn3CCN(C)C)c3cc(O)ccc3n(c1=O)c24`, the TGI amounted to 0.846 µM in assay [1]; 0.641 µM in assay [2]; 3.15 µM in [3]; 0.603 µM in assay [4]; 0.585 µM in assay [5]; 0.0292 µM in assay [6].
With `O=C1Nc2ccccc2/C1=C/c1c(Cl)[nH]c2ccc(O)cc12`, the TGI in [1] was found to be 11 µM; in assay [2], 0.947 µM; in assay [3], 2.16 µM; in assay [4] it was 1.6 µM; in [5], 6.04 µM; in assay [6], 6.74 µM.
As to `C/C(=N\NC(=S)NC(C)(C)C)c1ccccn1`, the TGI in assay [1] is 9.19 µM; in [2], greater than 100 µM; in assay [3], 18.1 µM; in assay [4], greater than 100 µM; in [5] it was 25.7 µM; in assay [6], greater than 23.1 µM.
Take `CCOC(=O)C1(C/C=C\CBr)CCCCCCCCCCC1=O` (configuration not stated): the TGI in [1] is 55 µM; in assay [2], 29.8 µM; in assay [3], 14.8 µM; in assay [4] it was 38.4 µM; in assay [5], 31.9 µM; in assay [6] it was 1.04 µM.
For the compound `Nc1nc(N)c2[nH]cnc2n1` (tested in a mixture with another compound), the TGI in [1] was 36.2 µM; in assay [2], 77.5 µM; in assay [3] it was greater than 100 µM; in [4], greater than 100 µM; in assay [5] it was 24.9 µM; in assay [6] it was 54.2 µM.
In the case of `CCOc1ncn(-c2ccc(NC(=S)NC34CC5CC(CC(C5)C3)C4)cc2)n1`, the TGI in [1], in [2], in [3], in assay [4], in assay [5] and in [6] was greater than 100 µM throughout.
As for `O=C1[C@@H]2C[C@@H](O)CN2C(=O)c2ccccc2N1CCCO`, the TGI in assay [1], in assay [2], in [3], in assay [4], in assay [5] and in [6] was greater than 100 µM in each case.
Turning to `C=C=C(Sc1ccccc1)C(C)(C)OC(C)=O`, the TGI in [7] was 91.4 µM; in assay [1], 32.4 µM; in assay [3], 29.8 µM; in assay [11], 31.5 µM; in assay [5], 29.2 µM; in assay [12] it was 38.3 µM. Further, the TGI in [14] was found to be 58.7 µM; in assay [15], 30.6 µM; in assay [6], 29.6 µM; in assay [16] it was 38.5 µM.
As to `COc1ccc(C(=O)N(C(=S)OCCOc2ccccc2)c2ccccc2)cc1`, the TGI in [1], in assay [2], in assay [3], in assay [4], in assay [5] and in assay [6] was greater than 100 µM in each case.
Regarding `Cc1ccc2c(C)c3ccc4ccccc4c3c[n+]2c1`, the TGI in assay [7] is greater than 100 µM; in [1] it was 33.9 µM; in assay [8], 31 µM; in assay [9], 32.7 µM; in assay [3], 33.7 µM; in [11], greater than 100 µM. The TGI in [5] was 27.4 µM; in assay [12], 30.4 µM; in [14], greater than 100 µM; in [15], 17.3 µM; in assay [6], 28.3 µM; in assay [16] it was 43.2 µM.
For the compound `C=CCCCC1CCCNC1=S` (configuration not stated), the TGI in assay [1], in assay [2], in assay [3], in assay [4], in assay [5] and in [6] was greater than 100 µM each time.
In the case of `O=c1[nH]c(-c2ccccc2)nc2c1sc1nc3ccccc3n12`, the TGI in assay [1], in assay [2], in [3], in [4], in [5] and in assay [6] was greater than 100 µM each time.
Consider `CC(C)CC(NC(=O)C(CCI)Cc1ccccc1)C(=O)Nc1ccccc1` (configuration not stated), for which the TGI in [1] is greater than 100 µM; in assay [2] it was greater than 100 µM; in assay [3] it was greater than 100 µM; in assay [4] it was greater than 100 µM; in [5], greater than 100 µM; in [6], 78.1 µM.
Take `COc1ccc(-c2cc(=O)c3cc4c(cc3[nH]2)OCO4)cc1`: the TGI in assay [1], in [8], in [9], in [3], in assay [10] and in assay [11] was greater than 100 µM each time. Also, the TGI in assay [5], in assay [12], in [14] and in assay [15] was greater than 100 µM throughout.
As to `COC(=O)C1CCC(=O)N1C(c1ccccc1)c1cc(OC)c(OC)c(OC)c1` (configuration not stated), the TGI in assay [1] was greater than 100 µM; in assay [2] it was 59.7 µM; in assay [3] it was greater than 100 µM; in assay [4], 58.8 µM; in [5] it was greater than 100 µM; in [6] it was greater than 100 µM.
Take `c1ccc2c(c1)nc1n2C2CCC(C2)N1` (configuration not stated): the TGI in [1], in assay [2], in assay [3], in assay [4], in assay [5] and in assay [6] was greater than 10 µM each time.
Consider `COC(C)(C)CCc1[nH]c2ccccc2c1CC(=O)NCCc1cncn1C`, for which the TGI in assay [1], in assay [2], in [3], in assay [4], in assay [5] and in [6] was greater than 100 µM each time.
In the case of `O=C1C(=C(I)I)c2ccccc2-c2ccccc21`, the TGI in assay [1] turned out to be 9.15 µM; in assay [2], 5.58 µM; in assay [3] it was 3.61 µM; in assay [4] it was 4.6 µM; in [5], 10.7 µM; in assay [6], 2.61 µM.
For `c1ccc2cc(CNCCOCCOCCNCc3ccc4ccccc4c3)ccc2c1`, the TGI in assay [1] was determined as 3.89 µM; in [2], 3.81 µM; in assay [3], 3.69 µM; in assay [4] it was 3.23 µM; in [5], 3.54 µM; in [6], 3.44 µM.
With `CC(=O)N(CN1C(=O)CCC1C(=O)O)c1cccc(O)c1` (configuration not stated), the TGI in assay [1], in [2], in [3], in assay [4], in assay [5] and in assay [6] was greater than 100 µM throughout.

Values taken from PubChem BioAssay (NCI).
